Consider 22 molecules from patent US8637501B2, “Azinone-substituted azepino[b]indole and pyrido-pyrrolo-azepine MCH-1 antagonists, methods of making, and use thereof” (Albany Molecular Research, Inc., priority 2009, dated 2014).

Structures are written as SMILES. Where a name gives a salt, the structure may show the parent alone.

Chain of human MCH-1 receptor (Q99705 whole entry): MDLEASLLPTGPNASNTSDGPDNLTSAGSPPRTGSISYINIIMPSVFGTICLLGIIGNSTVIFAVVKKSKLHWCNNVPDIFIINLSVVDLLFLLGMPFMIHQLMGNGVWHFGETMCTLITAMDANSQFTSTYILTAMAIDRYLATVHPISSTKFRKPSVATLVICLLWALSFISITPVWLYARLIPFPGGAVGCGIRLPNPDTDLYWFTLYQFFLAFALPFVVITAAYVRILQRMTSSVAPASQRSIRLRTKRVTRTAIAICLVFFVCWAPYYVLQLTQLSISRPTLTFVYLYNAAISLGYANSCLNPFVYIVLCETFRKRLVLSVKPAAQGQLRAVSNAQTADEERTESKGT

The experiment has as its target human MCH-1 receptor (Homo sapiens (Human), UniProt Q99705). Description: Binding Assay for Human Melanin-Concentrating Hormone (MCH-1) Receptor. The following applies: radioligand displacement, membranes from CHO-K1 cells expressing human MCH-1 receptor; Ki from IC50 by Cheng Prusoff equation; read-out: MCH1 Ki. The method, then: Binding Assay for Human Melanin-Concentrating Hormone (MCH-1) Receptor
Evaluation of the affinity of compounds for the human MCH-1 receptor was accomplished using 4-(3,4,5-tritritiumbenzyloxy)-1-(1-(2-(pyrrolidin-1-yl)ethyl)-1H-indazol-5-yl)pyridin-2(1H)-one and membranes prepared from stable CHO-K1 cells expressing the human MCH-1 receptor obtained from Euroscreen (Batch 1138). Cell membrane homogenates (8.92 μg protein) were incubated for 60 min at 25° C. with 1.4 nM of the [^3H]-labeled compound in the absence or presence of the test compound in 50 mM Tris-HCl buffer, pH 7.4. Nonspecific binding was determined in the presence of 50 μM 1-(5-(4-cyanophenyl)bicyclo[3.1.0]hexan-2-yl)-3-(4-fluoro-3-(trifluoromethyl)phenyl)-1-(3-(4-methylpiperazin-1-yl)propyl)urea. Following incubation, the samples were filtered rapidly under vacuum through Skatron 11731 filters, pre-soaked in 0.5% polyethylenimine, and washed with ice-cold 50 mM Tris-HCl buffer, pH 7.4, (wash setting 9,9,0) using a Skatron cell harvester. The filters were counted for radioactivity in a liquid scintillation counter (Tri-Carb 2100TR, Packard) using a scintillation cocktail (Ultima Gold MV, Perkin Elmer).
The results are expressed as a percent inhibition of the control radioligand specific binding. The IC50 value (concentration causing a half-maximal inhibition of control specific binding) and Hill coefficient (nH) were determined by non-linear regression analysis of the competition curve using Hill equation curve fitting. The inhibition constant (Ki) was calculated from the Cheng Prusoff equation: (Ki=IC50/(1+(L/KD)), where L=concentration of radioligand in the assay, and KD=affinity of the radioligand for the receptor.
Consider `Cn1c2c(c3ccc(-n4ccc(-c5ccc(C(F)(F)F)nn5)cc4=O)cc31)CCNCC2` [Example 2, 1-(6-Methyl-1,2,3,4,5,6-hexahydroazepino[4,5-b]indol-8-yl)-4-(6-(trifluoromethyl)pyridazin-3-yl)pyridin-2(1H)-one dihydrochloride], for which the Ki was determined as 0.0144 µM. The value for `Cn1c2c(c3ccc(-n4ccc(-c5ccc(C(F)(F)F)cn5)cc4=O)cc31)CCNCC2` [Example 3, 1-(6-Methyl-1,2,3,4,5,6-hexahydroazepino[4,5-b]indol-8-yl)-4-(5-(trifluoromethyl)pyridin-2-yl)pyridin-2(1H)-one dihydrochloride] was 0.0101 µM; that for `Cn1c2c(c3ccc(-n4ccc(-c5ccc(C(F)(F)F)nc5)cc4=O)cc31)CCNCC2` [Example 4, 1-(6-Methyl-1,2,3,4,5,6-hexahydroazepino[4,5-b]indol-8-yl)-4-(6-(trifluoromethyl)pyridin-3-yl)pyridin-2(1H)-one dihydrochloride] was 0.0071 µM. As to `Cn1c2c(c3ccc(-n4ccc(OCc5ccc(C(F)(F)F)nc5)cc4=O)cc31)CCNCC2` [Example 5, 1-(6-Methyl-1,2,3,4,5,6-hexahydroazepino[4,5-b]indol-8-yl)-4-((6-(trifluoromethyl)pyridin-3-yl)methoxy)pyridin-2(1H)-one dihydrochloride], the Ki stood at 0.0118 µM. As to `Cn1c2c(c3ccc(-n4ccc(-c5cnc(C(F)(F)F)nc5)cc4=O)cc31)CCNCC2` [Example 6, 1-(6-Methyl-1,2,3,4,5,6-hexahydroazepino[4,5-b]indol-8-yl)-4-(2-(trifluoromethyl)pyrimidin-5-yl)pyridin-2(1H)-one dihydrochloride], the Ki worked out at 0.131 µM. The value for `O=c1cc(-c2ccc(C(F)(F)F)nn2)ccn1-c1ccc2c3c([nH]c2c1)CCNCC3` [Example 8, 1-(1,2,3,4,5,6-Hexahydroazepino[4,5-b]indol-8-yl)-4-(6-(trifluoromethyl)pyridazin-3-yl)pyridin-2(1H)-one dihydrochloride] was 0.148 µM; that for `O=c1cc(-c2ccc(C(F)(F)F)cn2)ccn1-c1ccc2c3c([nH]c2c1)CCNCC3` [Example 9, 1-(1,2,3,4,5,6-Hexahydroazepino[4,5-b]indol-8-yl)-4-(5-(trifluoromethyl)pyridin-2-yl)pyridin-2(1H)-one dihydrochloride] was 1.37 µM. Take `Cn1c2c(c3ccc(-n4ncc(OCc5ccc(F)cn5)cc4=O)cc31)CCNCC2` [Example 10, 5-((5-Fluoropyridin-2-yl)methoxy)-2-(6-methyl-1,2,3,4,5,6-hexahydroazepino[4,5-b]indol-8-yl)pyridazin-3(2H)-one dihydrochloride]: the Ki stood at 0.0134 µM. Turning to `Cc1ccc(-c2ccn(-c3ccc4c5c(n(C)c4c3)CCNCC5)c(=O)c2)cn1` [Example 11, 1-(6-Methyl-1,2,3,4,5,6-hexahydroazepino[4,5-b]indol-8-yl)-4-(6-methylpyridin-3-yl)pyridin-2(1H)-one dihydrochloride], the Ki stood at 0.049 µM. Take `O=c1cc(-c2ccc(C(F)(F)F)cc2)ccn1-c1ccc2c3c([nH]c2c1)CCNCC3` [Example 12, 1-(1,2,3,4,5,6-Hexahydroazepino[4,5-b]indol-8-yl)-4-(4-(trifluoromethyl)phenyl)pyridin-2(1H)-one hydrochloride]: the Ki amounted to 0.0114 µM. For `O=c1cc(OCc2ccc(F)cn2)ccn1-c1ccc2c3c([nH]c2c1)CCNCC3` [Example 13, 4-((5-Fluoropyridin-2-yl)methoxy)-1-(1,2,3,4,5,6-hexahydroazepino[4,5-b]indol-8-yl)pyridin-2(1H)-one dihydrochloride] the value was 0.0103 µM. For the molecule `CC(C)N1CCc2c(n(C)c3cc(-n4ccc(OCc5ccc(F)cn5)cc4=O)ccc23)CC1` [Example 16, 4-((5-Fluoropyridin-2-yl)methoxy)-1-(3-isopropyl-6-methyl-1,2,3,4,5,6-hexahydroazepino[4,5-b]indol-8-yl)pyridin-2(1H)-one hydrochloride], the Ki turned out to be 0.0137 µM.

Consider `Cl.Cn1c2c(c3ccc(-n4ccc(-c5ccc(C(F)(F)F)cn5)cc4=O)cc31)CCCNC2` [Example 20, 1-(10-Methyl-1,2,3,4,5,10-hexahydroazepino[3,4-b]indol-8-yl)-4-(5-trifluoromethyl)pyridin-2-yl)pyridin-2(1H)-one hydrochloride], for which the Ki amounted to 0.242 µM.

For the molecule `Cn1c2c(c3ccc(-n4ccc(OCc5ccc(F)cn5)cc4=O)cc31)CNCCC2` [Example 22, 4-((5-Fluoropyridin-2-yl)methoxy)-1-(6-methyl-1,2,3,4,5,6-hexahydroazepino[4,3-b]indol-8-yl)-)pyridin-2(1H)-one hydrochloride], the inhibitory constant (Ki) was 0.0112 µM. The value for `Cn1c2c(c3ccc(-n4ccc(OCc5ccc(C(F)(F)F)nc5)cc4=O)cc31)CNCCC2` [Example 24, 1-(6-Methyl-1,2,3,4,5,6-hexahydroazepino[4,3-b]indol-8-yl)-4-((6-(trifluoromethyl)pyridin-3-yl)methoxy)pyridin-2(1H)-one hydrochloride] was 0.0064 µM; that for `Cn1c2c(c3ccc(-n4ccc(-c5cnc(C(F)(F)F)nc5)cc4=O)cc31)CNCCC2` [Example 25, 1-(6-Methyl-1,2,3,4,5,6-hexahydroazepino[4,3-b]indol-8-yl)-4-(2-(trifluoromethyl)pyrimdin-5-yl)pyridin-2(1H)-one hydrochloride] was 0.0423 µM; that for `Cl.Cn1c2c(c3ccc(-n4ccc(-c5ccc(C(F)(F)F)cc5)cc4=O)cc31)CNCCC2` [Example 26, 1-(6-Methyl-1,2,3,4,5,6-hexahydroazepino[4,3-b]indol-8-yl)-4(4-trifluoromethyl)phenyl)pyridin-2(1H)-one hydrochloride] was 0.0061 µM. As for `CN1CCCc2c(c3ccc(-n4ccc(OCc5ccccc5)cc4=O)cc3n2C)C1` [Example 29, 4-(Benzyloxy)-1-(2,6-dimethyl-1,2,3,4,5,6-hexahydroazepino[4,3-b]indol-8-yl)pyridin-2(1H)-one hydrochloride], the inhibitory constant (Ki) is 0.005 µM. As for `CCN1CCCc2c(c3ccc(-n4ccc(OCc5ccccc5)cc4=O)cc3n2C)C1` [Example 30, 4-(Benzyloxy)-1-(2-ethyl-6-methyl-1,2,3,4,5,6-hexahydroazepino[4,3-b]indol-8-yl)pyridin-2(1H)-one hydrochloride], the Ki stood at 0.005 µM. The value for `CC(C)N1CCCc2c(c3ccc(-n4ccc(OCc5ccccc5)cc4=O)cc3n2C)C1` [Example 31, 4-(Benzyloxy)-1-(2-isopropyl-6-methyl-1,2,3,4,5,6-hexahydroazepino[4,3-b]indol-8-yl)pyridin-2(1H)-one hydrochloride] was 0.0094 µM. Turning to `Cc1ccc(COc2ccn(-c3ccc4c5c(n(C)c4c3)CCCNC5)c(=O)c2)cn1` [Example 34, 1-(6-Methyl-1,2,3,4,5,6-hexahydroazepino[4,3-b]indol-8-yl)-4-((6-methylpyridin-3-yl)methoxy)pyridin-2(1H)-one hydrochloride], the Ki worked out at 0.0106 µM. Consider `O=c1cc(OCc2ccccc2)ccn1-c1ccc2c3c([nH]c2c1)CCCNC3` [Example 35, 4-(Benzyloxy)-1-(1,2,3,4,5,6-hexahydroazepino[4,3-b]indol-8-yl)pyridin-2(1H)-one hydrochloride], for which the Ki is 0.0058 µM.
